Reference: PubChem BioAssay (NCI)
Values joined by “and” are separate entries in the source; they are usually repeats but may differ in a detail not shown here. Identical values can stand only once.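 Following 48 hours of exposure in 96-well plates, responses at five concentrations were used to interpolate endpoints linearly. GI50 is the concentration that inhibits growth by half. TGI denotes the concentration required for complete inhibition of growth.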

Legend:
Experiment in all cases: DTP human tumour cell line panel, 48 h
786-0 renal = test system: 786-0 renal
CAKI-1 renal = test system: CAKI-1 renal
CCRF-CEM leukemia = test system: CCRF-CEM leukemia
COLO 205 colon = test system: COLO 205 colon
DU-145 prostate = test system: DU-145 prostate
HCC-2998 colon = test system: HCC-2998 colon
HCT-15 colon = test system: HCT-15 colon
HL-60(TB) leukemia = test system: HL-60(TB) leukemia
HOP-62 NSCLC = test system: HOP-62 NSCLC
HOP-92 NSCLC = test system: HOP-92 NSCLC
HT29 colon = test system: HT29 colon
IGROV1 ovarian = test system: IGROV1 ovarian
K-562 leukemia = test system: K-562 leukemia
KM12 colon = test system: KM12 colon
M14 melanoma = test system: M14 melanoma
MALME-3M melanoma = test system: MALME-3M melanoma
MCF7 breast = test system: MCF7 breast
MDA-MB-231 breast = test system: MDA-MB-231 breast
MDA-MB-435 = test system: MDA-MB-435
MDA-N = test system: MDA-N
NCI-H23 lung = test system: NCI-H23 lung
NCI-H522 lung = test system: NCI-H522 lung
OVCAR-3 ovarian = test system: OVCAR-3 ovarian
OVCAR-4 ovarian = test system: OVCAR-4 ovarian
OVCAR-5 ovarian = test system: OVCAR-5 ovarian
OVCAR-8 ovarian = test system: OVCAR-8 ovarian
PC-3 prostate = test system: PC-3 prostate
RPMI-8226 leukemia = test system: RPMI-8226 leukemia
SF-268 CNS = test system: SF-268 CNS
SF-295 CNS = test system: SF-295 CNS
SF-539 CNS = test system: SF-539 CNS
SK-MEL-2 melanoma = test system: SK-MEL-2 melanoma
SK-MEL-28 melanoma = test system: SK-MEL-28 melanoma
SK-MEL-5 melanoma = test system: SK-MEL-5 melanoma
SN12C renal = test system: SN12C renal
SW-620 colon = test system: SW-620 colon
TK-10 renal = test system: TK-10 renal
U251 CNS = test system: U251 CNS
UACC-257 melanoma = test system: UACC-257 melanoma
UACC-62 melanoma = test system: UACC-62 melanoma
UO-31 renal = test system: UO-31 renal
A549 NSCLC = test system: A549 NSCLC
ACHN renal = test system: ACHN renal
EKVX NSCLC = test system: EKVX NSCLC
HCT-116 colon = test system: HCT-116 colon
HS 578T breast = test system: HS 578T breast
LOX IMVI melanoma = test system: LOX IMVI melanoma
MOLT-4 leukemia = test system: MOLT-4 leukemia
NCI-H226 lung = test system: NCI-H226 lung
NCI-H460 lung = test system: NCI-H460 lung
NCI/ADR-RES ovarian = test system: NCI/ADR-RES ovarian
RXF 393 renal = test system: RXF 393 renal
SK-OV-3 ovarian = test system: SK-OV-3 ovarian
SNB-19 CNS = test system: SNB-19 CNS
SNB-75 CNS = test system: SNB-75 CNS
SR leukemia = test system: SR leukemia
T-47D breast = test system: T-47D breast

## CCC1(O)CC(OC2CC(N(C)C)C(OC3CC(O)C(OC4CCC(=O)C(C)O4)C(C)O3)C(C)O2)c2c(O)c3c(c(O)c2C1C(=O)OC)C(=O)c1cccc(O)c1C3=O (stereo not drawn)
786-0 renal
  TGI: 218 nM and 449 nM
CAKI-1 renal
  TGI: 9.8 nM
CCRF-CEM leukemia
  TGI: 32.8 nM
COLO 205 colon
  TGI: 124 nM
DU-145 prostate
  TGI: 124 nM
HCC-2998 colon
  TGI: 40 nM
HCT-15 colon
  TGI: 54.3 nM and 90 nM
HL-60(TB) leukemia
  TGI: 49.6 nM
HOP-62 NSCLC
  TGI: 138 nM and 119 nM
HOP-92 NSCLC
  TGI: 763 nM and 2170 nM
HT29 colon
  TGI: 103 nM and 14.7 nM
IGROV1 ovarian
  TGI: 28.1 nM
K-562 leukemia
  TGI: 12.5 nM
KM12 colon
  TGI: 1280 nM
M14 melanoma
  TGI: 13 nM
MALME-3M melanoma
  GI50: 10.6 nM
  TGI: 66.7 nM and 26.7 nM
MCF7 breast
  TGI: 1020 nM
MDA-MB-231 breast
  TGI: 280 nM and 229 nM
MDA-MB-435
  TGI: 101 nM
MDA-N
  TGI: 107 nM and 14.2 nM
NCI-H23 lung
  TGI: 112 nM and 31 nM
NCI-H522 lung
  TGI: 54.9 nM
OVCAR-3 ovarian
  TGI: 10300 nM
OVCAR-4 ovarian
  TGI: 210 nM
OVCAR-5 ovarian
  TGI: 73.5 nM and 722 nM
OVCAR-8 ovarian
  TGI: 900 nM and 187 nM
PC-3 prostate
  TGI: 252 nM and 132 nM
RPMI-8226 leukemia
  TGI: 75.5 nM
SF-268 CNS
  TGI: 320 nM and 973 nM
SF-295 CNS
  TGI: 121 nM and 330 nM
SF-539 CNS
  TGI: 127 nM and 65.3 nM
SK-MEL-2 melanoma
  TGI: 24.7 nM
SK-MEL-28 melanoma
  TGI: 83.7 nM and 57.1 nM
SK-MEL-5 melanoma
  TGI: 26.1 nM
SN12C renal
  TGI: 175 nM
SW-620 colon
  TGI: 39.4 nM
TK-10 renal
  TGI: 392 nM and 211 nM
U251 CNS
  TGI: 1420 nM
UACC-257 melanoma
  TGI: 91.5 nM
UACC-62 melanoma
  TGI: 23.5 nM
UO-31 renal
  TGI: 29.2 nM

## C=CC1(c2ccc(OC)cc2)OCCCO1
786-0 renal
  TGI: > 100000 nM
A549 NSCLC
  TGI: > 100000 nM
ACHN renal
  TGI: > 100000 nM
CCRF-CEM leukemia
  TGI: > 100000 nM
COLO 205 colon
  TGI: > 100000 nM
DU-145 prostate
  TGI: > 100000 nM
EKVX NSCLC
  TGI: 34600 nM
HCC-2998 colon
  TGI: > 100000 nM
HCT-116 colon
  TGI: > 100000 nM
HCT-15 colon
  TGI: > 100000 nM
HL-60(TB) leukemia
  TGI: > 100000 nM
HOP-62 NSCLC
  TGI: > 100000 nM
HOP-92 NSCLC
  TGI: > 100000 nM
HS 578T breast
  TGI: > 100000 nM
HT29 colon
  TGI: > 100000 nM
IGROV1 ovarian
  TGI: > 100000 nM
K-562 leukemia
  TGI: > 100000 nM
KM12 colon
  TGI: > 100000 nM
LOX IMVI melanoma
  TGI: > 100000 nM
M14 melanoma
  TGI: > 100000 nM
MALME-3M melanoma
  TGI: > 100000 nM
MCF7 breast
  TGI: > 100000 nM
MDA-MB-231 breast
  TGI: > 100000 nM
MDA-MB-435
  TGI: > 100000 nM
MDA-N
  TGI: > 100000 nM
MOLT-4 leukemia
  TGI: > 100000 nM
NCI-H226 lung
  TGI: > 100000 nM
NCI-H23 lung
  TGI: > 100000 nM
NCI-H460 lung
  TGI: > 100000 nM
NCI-H522 lung
  TGI: > 100000 nM
NCI/ADR-RES ovarian
  TGI: > 100000 nM
OVCAR-3 ovarian
  TGI: > 100000 nM
OVCAR-4 ovarian
  TGI: > 100000 nM
OVCAR-5 ovarian
  TGI: > 100000 nM
OVCAR-8 ovarian
  TGI: > 100000 nM
PC-3 prostate
  TGI: > 100000 nM
RPMI-8226 leukemia
  TGI: > 100000 nM
RXF 393 renal
  TGI: > 100000 nM
SF-268 CNS
  TGI: > 100000 nM
SF-295 CNS
  TGI: > 100000 nM
SF-539 CNS
  TGI: > 100000 nM
SK-MEL-2 melanoma
  TGI: > 100000 nM
SK-MEL-28 melanoma
  TGI: > 100000 nM
SK-MEL-5 melanoma
  TGI: > 100000 nM
SK-OV-3 ovarian
  TGI: > 100000 nM
SN12C renal
  TGI: > 100000 nM
SNB-19 CNS
  TGI: > 100000 nM
SNB-75 CNS
  TGI: > 100000 nM
SR leukemia
  TGI: > 100000 nM
SW-620 colon
  TGI: > 100000 nM
T-47D breast
  TGI: > 100000 nM
TK-10 renal
  TGI: > 100000 nM
U251 CNS
  TGI: > 100000 nM
UACC-257 melanoma
  TGI: > 100000 nM
UACC-62 melanoma
  TGI: > 100000 nM
UO-31 renal
  TGI: > 100000 nM
